Values after ≈ are worked out from the molar mass of the structure shown. Bridge positions count the residues as written; N and C are the ends. Peptide text beside a SMILES is read from it.
Legend:
[1] = tested on: Sal. typhimurium SL1344; test: microbe, parasite or virus in culture; assay type: cell-based, Salmonella enterica serovar Typhimurium
Description: (§1) To determine the antimicrobial activity of the new antimicrobial peptides, HG2 and HG4, their minimum inhibitory concentrations (MICs) were determined by broth microdilution method[51] in cation adjusted Mueller Hinton broth (MHB) following the International Organisation for Standardisation (ISO) 20776-1 standard for MIC testing using a final bacterial inoculum of 5 × 10^5 CFU/ml[52]. […] The peptides dissolved in sterile distilled water were added to bacteria culture and incubated overnight at appropriate conditions. The MICs of the peptides and comparator antibiotics were recorded after 18–24 h. The minimum bactericidal concentrations (MBCs) were also determined and were taken as the lowest concentration of the antimicrobial that prevented the growth of bacterial cells after the subculture of cells (from MIC treatment) onto antibiotic-free media.

[2] = tested on: E. coli K12; test: microbe, parasite or virus in culture; assay type: cell-based, Escherichia coli; settings: K12
Description: as §1

[3] = tested on: Ent. faecalis JH2-2; test: microbe, parasite or virus in culture; assay type: cell-based, Enterococcus faecalis
Description: as §1

[4] = tested on: MRSA USA300 cells; test: Transmission electron microscopy; assay type: cell-based, Staphylococcus aureus; settings: 3x MICs for 60 min
Text: Transmission electron microscopy[14] was used to investigate the effects of HG2 and HG4 on MRSA USA300 cell morphology. […] They were then stained with 2% (w/v) uranyl acetate and Reynold’s lead citrate after which they were observed using a JEM1010 transmission electron microscope (JEOL Ltd, Tokyo, Japan) at 80 kV.

[5] = Peptide-lipid interaction and insertion, lipid monolayer; assay type: binding, E. coli; settings: LPS; for Speed of insertion: initial surface pressure 30+/-0.5 mN/m; for Critical pressure of insertion πc: peptide 1 µg/mL
Description: Peptide–lipid interaction was measured using a lipid monolayer formed at the air:water interface with total lipid extracts and pure lipids. Total lipids were extracted from overnight cultures of MRSA or human erythrocytes using the Folch extraction procedure[14],[40]. Extracted total lipids were dried, re-solubilised in chloroform:methanol (2:1, v/v) and stored at −20 °C under nitrogen. Pure prokaryotic and eukaryotic lipids used were: cardiolipin, POPC (1-palmitoyl-2-oleoyl-glycero-3-phosphocholine), POPE (1-palmitoyl-2-oleoyl-sn-glycero-3-phosphoethanolamine) and POPG (1-palmitoyl-2-oleoyl-sn-glycero-3-phospho-(1’-rac-glycerol) (Avanti Polar Lipid). LTA (Lipoteichoic acid from S. aureus) and LPS (lipopolysaccharide from E. coli) (Invitrogen, UK) were also tested. Pure lipids were reconstituted in chloroform:methanol (2:1 v/v) at 1 mg/ml and stored at −20 °C under nitrogen. For peptide–lipid interaction assay, lipid monolayers at the air:water interface were formed by spreading total lipid extract or pure lipids at the surface of 800 µl of sterile PBS using a 50 µl Hamilton’s syringe. Lipids were added until the surface pressure reached the desired value. After 5–10 min of incubation allowing the evaporation of the solvent and stabilisation of the initial surface pressure, 8 µl of HG2 or HG4 diluted in sterile PBS at 100 µg/ml were injected into the 800 µl sub-phase of PBS under the lipid monolayer (pH 7.4, volume 800 µl) using a 10 µl Hamilton’s syringe giving a final concentration of peptide of 1 µg/ml, as preliminary experiments had shown that this concentration was optimal. The variation of the surface pressure caused by peptide insertion was then continuously monitored using a fully automated microtensiometer (µTROUGH SX, Kibron Inc, Finland) until it reached equilibrium (maximal surface pressure increase is usually obtained after 15–25 min). To reflect physiological situations, the initial surface pressure was fixed at 30 ± 0.5 mN/m in some experiments as this value corresponds to a lipid packing density theoretically equivalent to that of the outer leaflet of the eukaryotic and prokaryotic cell membrane. In other experiments, the critical pressure of insertion of HG2 or HG4 in the total lipid extracts and pure lipids was measured as follows[14],[56]. Briefly, in these experiments, the initial pressure of the lipid monolayer was set up at different values (between 10 and 30 mN/m) and the variation of pressure caused by the injection of the peptide was measured. […] All experiments were carried out in a controlled atmosphere at 20 ± 1 °C and data were analyzed using the Firmware 2.5 programme (Kibron Inc.). The accuracy of the system under our experimental conditions was determined to be ±0.25 mN/m for surface pressure measurements.

[6] = tested on: P. aeruginosa; test: microbe, parasite or virus in culture; assay type: cell-based, Pseudomonas aeruginosa
How it was run: (§2)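 Broth microdilution in cation-adjusted Mueller Hinton broth per ISO 20776-1, with a final inoculum of 5 × 10^5 CFU/ml. Peptides dissolved in sterile distilled water were incubated with bacteria overnight, and MICs were recorded after 18–24 h. MBC was the lowest concentration preventing regrowth on subculture to antibiotic-free media.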

[7] = tested on: Sal. typhimurium; test: microbe, parasite or virus in culture; assay type: cell-based, Salmonella enterica serovar Typhimurium; settings: Sal. typhimurium; Supplementary Table 5
Description: as §1

[8] = tested on: EMRA-15; test: microbe, parasite or virus in culture; assay type: cell-based, Staphylococcus aureus
How it was run: as §2

[9] = tested on: Ent. faecalis; test: microbe, parasite or virus in culture; assay type: cell-based, Enterococcus faecalis; settings: Ent. faecalis; Supplementary Table 5
Description: as §1

[10] = tested on: L. monocytogenes NCTC 11994; test: microbe, parasite or virus in culture; assay type: cell-based, Listeria monocytogenes; settings: NCTC 11994
Description: as §1

[11] = tested on: List. monocytogenes; test: microbe, parasite or virus in culture; assay type: cell-based, Listeria monocytogenes
Description: as §1

Row | SMILES | MIC [1] [µg/mL] | MIC [2] [µg/mL] | MIC [3] [µg/mL] | cell morphology by TEM [4] | Speed of insertion [5] [mN/m/10 sec] | Critical pressure of insertion πc [5] [mN/m] | Minimum inhibitory Concentrations MICs [6] [µg/mL] | Minimum inhibitory Concentrations MICs [7] [µg/mL] | Minimum inhibitory Concentrations MICs [8] [µg/mL] | Minimum inhibitory Concentrations MICs [9] [µg/mL] | MIC [10] [µg/mL] | Minimum inhibitory Concentrations MICs [11] [µg/mL]
1 | CC[C@H](C)[C@H](NC(=O)[C@H](CC(C)C)NC(=O)[C@H](CC(C)C)NC(=O)[C@H](CC(C)C)NC(=O)[C@H](CCCCN)NC(=O)[C@H](CCCCN)NC(=O)[C@@H](N)CCSC)C(=O)N[C@@H](CC(C)C)C(=O)N[C@@H](Cc1ccccc1)C(=O)N[C@H]1CSSC[C@@H](C(=O)N[C@@H](CCCCN)C(=O)N[C@@H](CCCCN)C(=O)N[C@@H](C)C(=O)N2CCC[C@H]2C(N)=O)NC(=O)CNC(=O)[C@H](C)NC(=O)[C@H](CC(C)C)NC(=O)[C@H](C)NC(=O)[C@H](CC(C)C)NC(=O)[C@H](C)NC(=O)[C@H](CC(C)C)NC1=O [HG2] (H-MKKLLLILFCLALALAGCKKAP-NH2; disulfide 10-18; N-terminus assumed) | 256 (≈ 109 µM) | 256 (≈ 109 µM) | 256 (≈ 109 µM) | changes in cell morphology and some cytoplasmic damage | 0.43 | 36.03 |  |  |  |  |  | 
2 | CC[C@H](C)[C@H](NC(=O)[C@H](CC(C)C)NC(=O)[C@H](CC(C)C)NC(=O)[C@H](C)NC(=O)CNC(=O)CNC(=O)[C@@H](NC(=O)[C@@H](NC(=O)[C@H](CC(C)C)NC(=O)[C@H](C)NC(=O)[C@H](CC(C)C)NC(=O)CNC(=O)[C@H](CC(C)C)NC(=O)[C@@H](N)C(C)C)[C@@H](C)CC)C(C)C)C(=O)N[C@@H](CCCCN)C(=O)N[C@@H](CCCCN)C(=O)N[C@@H](CCCCN)C(=O)N[C@@H](CCC(N)=O)C(=O)N[C@@H](C)C(=O)N[C@@H](CCCCN)C(=O)N[C@@H](CO)C(N)=O [HG4] (H-VLGLALIVGGALLIKKKQAKS-NH2; N-terminus and C-terminus assumed) |  | 512 (≈ 242 µM) |  | changes in cell morphology and some cytoplasmic damage | 0.31 | 34.08 | ≥ 1024 | 512 | 32 | 128 | 512 (≈ 242 µM) | 512

From paper PMC9283466, “In silico identification of two peptides with antibacterial activity against multidrug-resistant Staphylococcus aureus” (NPJ Biofilms and Microbiomes, 2022)
